These results are taken from US20230159453A1 (COCRYSTAL PHARMA, INC., priority 2020, published 2023).

The assay addresses SARS2 protease (Severe acute respiratory syndrome coronavirus 2, UniProt P0DTD1). Description: SARS-CoV-2 protease inhibition assay (SARS2 FRET protease assay). The assay is classed as biochemical. The following applies: SARS-CoV-2 protease 25 nM, FRET, peptide substrate 1.3 μM, 30 minutes at 30° C., compounds 20 μM to 1.0 nM; read-out: IC50.

Turning to `CS(=O)(=O)N1CCC2(CC1)CC(C[C@H](NC(=O)[C@H](CC1CCCCC1)NC(=O)OCc1cccc(Cl)c1)C(=O)C(=O)NC1CC1)C(=O)N2` (stereo partly drawn) [Compound C170, 3-Chlorobenzyl ((2S)-3-cyclohexyl-1-(((2S)-4-(cyclopropylamino)-1-(8-(methylsulfonyl)-2-oxo-1,8-diazaspiro[4.5]decan-3-yl)-3,4-dioxobutan-2-yl)amino)-1-oxopropan-2-yl)carbamate], the IC50 is 1840 nM.

Regarding `CC(C)C[C@H](NC(=O)O[C@H](c1cccc(F)c1)C(C)(C)c1cccc(Cl)c1)C(=O)N[C@H](C=O)C[C@@H]1CCNC1=O` [Compound C269], the IC50 turned out to be 70 nM.

For the molecule `CCOP(=O)(OCC)C(O)[C@H](CCC(=O)N1CCOc2ccccc2C1)NC(=O)[C@H](CC1CCCCC1)NC(=O)OC1CCN(S(C)(=O)=O)CC1` (stereo partly drawn) [Compound C28, 1-(Methylsulfonyl) piperidin-4-yl((2S)-3-cyclohexyl-1-(((2S)-1-(diethoxyphosphoryl)-5-(2,3-dihydrobenzo[f][1,4]oxazepin-4(5H)-yl)-1-hydroxy-5-oxopentan-2-yl)amino)-1-oxopropan-2-yl)carbamate], the IC50 was over 200000 nM.

`NC(=O)C(=O)C(CC1CC2(CCCCC2)NC1=O)NC(=O)[C@H](CC1CCCCC1)NC(=O)c1cc2ccccc2[nH]1` (stereo partly drawn) [Compound C119, N-((2S)-1-((4-amino-3,4-dioxo-1-(2-oxo-1-azaspiro[4.5]decan-3-yl)butan-2-yl)amino)-3-cyclohexyl-1-oxopropan-2-yl)-1H-indole-2-carboxamide]: the IC50 was determined as 796 nM.

Take `CC(C)C[C@H](NC(=O)OC(c1cccc(Cl)c1)C1(c2cccc(Cl)c2)CC1)C(=O)N[C@@H](C[C@@H]1CCNC1=O)C(=O)C(=O)NC1CC1` (stereo partly drawn) [Compound C187, (3-chlorophenyl)(1-(3-chlorophenyl)cyclopropyl)methyl ((S)-1-(((S)-4-(cyclopropylamino)-3,4-dioxo-1-((S)-2-oxopyrrolidin-3-yl)butan-2-yl)amino)-4-methyl-1-oxopentan-2-yl)carbamate]: the IC50 was 109 nM.

As for `CC(C)C[C@H](NC(=O)OC1CCCC1Cc1ccccc1)C(=O)N[C@@H](C[C@@H]1CCNC1=O)C(=O)C(N)=O` (stereo partly drawn) [Compound C240, 2-Benzylcyclopentyl ((S)-1-(((S)-4-amino-3,4-dioxo-1-((S)-2-oxopyrrolidin-3-yl)butan-2-yl)amino)-4-methyl-1-oxopentan-2-yl)carbamate], the IC50 came out at 230 nM.

Regarding `O=C(N[C@@H](CC1CCCCC1)C(=O)N[C@@H](C[C@@H]1CCNC1=O)C(=O)C(=O)NC1CC1)OC(c1cccc(Cl)c1)C1(c2cccc(Cl)c2)CC1` (stereo partly shown) [Compound C213], the IC50 came out at 257 nM.

Regarding `CCNC(=O)C(=O)[C@H](C[C@@H]1CCNC1=O)NC(=O)[C@H](CC1CCCCC1)NC(=O)OC(c1ccccc1)C(C)(C)c1cccc(Cl)c1` (stereo partly drawn) [Compound C211, 2-(3-Chlorophenyl)-2-methyl-1-phenylpropyl ((S)-3-cyclohexyl-1-(((S)-4-(ethylamino)-3,4-dioxo-1-((S)-2-oxopyrrolidin-3-yl)butan-2-yl)amino)-1-oxopropan-2-yl) carbamate], the half-maximal inhibitory concentration (IC50) was 339 nM.

Take `CC(C)C[C@H](NC(=O)OC1(Cc2ccccc2)CCC1)C(=O)N[C@@H](C[C@@H]1CCNC1=O)C(O)S(=O)(=O)O` (stereo partly drawn) [Compound C63, (2S)-2-((S)-2-(((1-Benzylcyclobutoxy)carbonyl)amino)-4-methylpentanamido)-1-hydroxy-3-((S)-2-oxopyrrolidin-3-yl)propane-1-sulfonate]: the IC50 turned out to be 1600 nM.

For `CC(C)(C)OC(=O)N1CCC(OC(=O)N[C@@H](CC2CCCCC2)C(=O)N[C@H](C=O)CCC(=O)N2CCOc3ccccc3C2)CC1` [Compound C23, Tert-butyl 4-((((S)-3-cyclohexyl-1-(((S)-5-(2,3-dihydrobenzo[f][1, 4]oxazepin-4(5H)-yl)-1,5-dioxopentan-2-yl)amino)-1-oxopropan-2-yl)carbamoyl)oxy)piperidine-1-carboxylate], the concentration for half-maximal inhibition (IC50) was over 200000 nM.

The IC50 is the concentration that gives 50% inhibition.
